Reference: patent publication US20150064328A1, “REBAUDIOSIDE C AND ITS STEREOISOMERS AS NATURAL PRODUCT SWEETNESS ENHANCERS” (Redpoint Bio Corporation, priority 2009, published 2015)
Entries after “also recorded” stand apart in the source; their conditions may differ.

Columns and labels:
[1] = Double-blind controlled sweetness intensity test, sequential monadic, sip and spit (Example 1 protocol); format: in vivo, human
Description: As used herein, the term “sweetness intensity” refers to the relative strength of sweet sensation as observed or experienced by an individual, e.g., a human, or a degree or amount of sweetness detected by a taster, for example on the scale from 0 (none) to 8 (very strong) (see Example 1) used in sensory evaluations according to the procedure described in American Society for Testing Materials, Special Technical Publication-434: “Manual on Sensory Testing Methods,” ASTM International, West Conshohocken, Pa. (1996). The sweetness enhancing effect of 300 μM Reb C (Chromadex, CA; purity 94.9%; 2.9% impurities other than water) on 5% (w/v-%) sucrose solution was evaluated in a double-blind controlled test conducted according to the following protocol. Three products were evaluated by trained judges as follows: • high concentration sucrose (7% w/v) • low concentration sucrose (5% w/v) • low concentration sucrose+sweetness enhancer (test compound) The products were evaluated using a sequential monadic test protocol. Subjects were given three samples to evaluate. Each subject was directed to swirl the first sample in his or her mouth for 3-5 seconds, expectorate the entire sample into a discard cup, and then assess the sweetness intensity of the sample. The intensity was rated on a score card by marking a numerical value along a scale from 0 to 8 (e.g., 0-none, 2=slight, 4=definite, 8=very strong). Following the decision regarding the sweetness intensity, subjects were instructed to rinse their mouth with water and spit in the discard cup. Subjects then were given unsalted crackers to cleanse the palate. A period of 10 minutes elapsed between presentations of each sample to reduce the potential influence of residual taste effects. A second sample was then presented and evaluated as above and the same procedure was followed until all three products were evaluated. Sample presentation was randomized to avoid order of presentation bias. To participate in the sensory panel, judges or subjects were chosen from an expert taste panel. These subjects were screened for taste acuity and were trained in evaluating solutions using the sip and spit protocol and were trained in using a rating ballot. The number of judges who participated in the study was 20. The female subjects were all non-pregnant and all volunteers were of <55 years of age with no history of allergy to sucrose. Judges were asked to execute an informed consent form. Specifically, the following instructions were given to the judges: Please take a sip of water. Carefully take the cap off the sample cup placed in front of you. Sip, swirl for 3-5 seconds, and then spit the sample into the cup provided, then assess the intensity of the sweetness of the sample. Please evaluate the sample for the intensity of the sweet flavor and put a vertical mark on the number that best describes the intensity. Rinse your mouth with the water provided and spit into the discard cup. Use crackers provided to cleanse your palate before evaluating the next sample. If any other flavor was present in the sample please describe it. Please rinse your mouth again several times and have some more water and unsalted crackers. You will now have a rest period of 10 minutes before you will be given the next sample.

[2] = Quantitative taste profile by trained panel (sweet, bitter, salt, sour, licorice); format: in vivo, human
Procedure: The taste of 150, 300, and 600 μM Reb C was evaluated by a test group. 10 panelists were trained over a period of a few weeks to provide a quantitative flavor profile of Reb C. Panelists first were trained using standard tastants representing the different taste modalities given in FIG. 7 (i.e., sweet, bitter, salt, sour, and licorice). They then were trained to use the scales when flavors were mixed together. All intensity ratings are on scales ranging from 0 (no taste) to 8 (highest intensity). The intensity rating for sweet is essentially the same as used in Examples 1 and 6. The taste profiles were obtained for 150, 300, and 600 μM Reb C. Reb A (0.2 mg/ml, a concentration used in some food/beverage applications for sweetening) was also evaluated in the test for comparison. The scale is not linear at the bottom. A rating of 1 is around the threshold for sweetness detection.

[3] = Forced-choice taste test of Reb C water solution versus water; format: in vivo, human; conditions: 250 μM Reb C water solution
Procedure: The taste of a 250 μM Reb C solution was evaluated by a test group having five (5) subjects as follows (Forced-choice): Subjects were presented with 2 cups, each containing 10 ml of either 250 μM Reb C water solution or water (room temperature). […] Subjects were asked to sip most or all of the 10 ml from the first cup, swish the liquid in their oral cavity, and expectorate into a cup, then rinse their mouths vigorously with water. Soon thereafter, the contents of the second cup were sampled in the same manner. Then, subjects were asked to choose the sweeter of the two samples, or if not sweet, to describe the qualitative taste profile of the sample having a detectable taste.

[4] = Double-blind controlled sweetness intensity test, sequential monadic, taste and swallow (Example 6 protocol); format: in vivo, human
[5] = Open qualitative taste report of Reb C water solutions; format: in vivo, human; conditions: 250 and 300 μM Reb C in water; all 4 subjects gave the same description
Procedure: The taste of 250 μM and 300 μM Reb C solutions were evaluated as follows by another test group having four (4) subjects as follows: 10 ml solutions of 250 and 300 μM Reb C in water were sampled by four subjects who were asked to report their qualitative taste experience of the solutions.

[6] = cited from earlier work
[7] = 300 μM Reb C in 8% (w/v-%) fructose solution, FIG. 16
[8] = sweetness intensities equivalent to 3% (w/v-%) sucrose
[9] = sweetness intensities equivalent to 7% (w/v-%) sucrose

For `C=C1C[C@@]23CC[C@H]4[C@@](C)(CCC[C@@]4(C)C(=O)O[C@@H]4O[C@H](CO)[C@@H](O)[C@H](O)[C@H]4O)[C@@H]2CC[C@]1(O[C@@H]1O[C@H](CO)[C@@H](O)[C@H](O[C@@H]2O[C@H](CO)[C@@H](O)[C@H](O)[C@H]2O)[C@H]1O[C@@H]1O[C@@H](C)[C@H](O)[C@@H](O)[C@H]1O)C3` [Reb C, Rebaudioside C], the “sweetness of sucrose solution in combination with Reb C” value (from here on “sweetness of sucrose solution”) ([1]; 150 μM Reb C in 8% (w/v-%) sucrose solution, FIG. 4) was “between that of the 8% (w/v-%) sucrose solution and that of an 11% (w/v-%) sucrose solution”, the “sweetness of fructose solution in combination with Reb C” value ([1]; 300 μM Reb C in 5% (w/v-%) fructose solution, FIG. 2) was “close to that of a 7% (w/v-%) fructose solution” and the “sweetness of sucrose solution” value ([1]; 300 μM Reb C in 5% (w/v-%) sucrose solution, 20 judges, scale 0 to 8, FIG. 1) was “indistinguishable from that of a 7% (w/v-%) sucrose solution”. The “sweetness of sucrose solution” value ([1]; 300 μM Reb C in 8% (w/v-%) sucrose solution, FIG. 3) was “close to that of an 11% (w/v-%) sucrose solution”, the “mean sweetness intensity score” value ([1]; 8% (w/v-%) sucrose solution with 150 μM Reb C, scale 0 to 8, 8% sucrose solution alone scored 5.30) was 6.10 and the “unpleasant tastes, bitter and licorice” value ([2]; 150, 300 and 600 μM Reb C alone, FIG. 7) was “barely detected”. The intrinsic sweetness ([2]; 150, 300 and 600 μM Reb C, 10 panelists, scale 0 to 8, FIG. 7) was “little or no intrinsic sweetness”, the “unpleasant tastes, bitter and licorice, when combined with sugar” value ([2]; Reb C combined with sugar) was “undetected” and the “identification of the sample containing Reb C versus water” value ([3]; 5 subjects, forced-choice) was “All subjects correctly identified the sample containing Reb C”. The “qualitative taste description, one per subject” value ([3]; subjects 1 to 5) was “Metallic, not sweet; also recorded: Aversive (“Nasty”); also recorded: Slight sweet, astringent; also recorded: Faintly sweet; also recorded: Slight sweet/licorice”, the “statistical significance of the effect of Reb C” value [4, 7] was “not statistically significant” and the “sweetness of fructose solution in combination with Reb C” value [4, 7] was “between that of the 8% (w/v-%) fructose solution and that of an 11% (w/v-%) fructose solution”. For the same compound, the “sweetness of iced tea with sucrose in combination with Reb C” value ([4]; 300 μM Reb C in iced tea with 8% (w/v-%) sucrose, FIG. 6) was “between that of the 8% (w/v-%) sucrose solution and that of an 11% (w/v-%) sucrose solution”, the “sweetness of iced tea with HFCS55 in combination with Reb C” value ([4]; 300 μM Reb C in iced tea with 10.39% (w/v-%) HFCS55, 20 judges, FIG. 5) was “indistinguishable from that of a 14.29% (w/v-%) HFCS55 (HFCS) solution” and the “sweetness intensity of cola beverage with HFCS55 in combination with Reb C” value ([4]; 190 ppm Reb C, 10.39% (w/v-%) HFCS55, buffered with citric acid, pH 2.7-2.8, FIG. 10) was “significantly increases the sweetness intensity to that of 14.29% HFCS55”. For the same compound, the “sweetness of cola beverage with HFCS55 in combination with Reb C” value ([4]; 190 ppm Reb C, 10.39% (w/v-%) HFCS55, buffered with phosphoric acid, FIG. 14) was “not higher than that of 10.39% (w/v-%) HFCS55 cola beverage alone”, the “sweetness of lemon-lime soda with HFCS55 in combination with Reb C” value ([4]; 190 ppm Reb C, 10.39% (w/v-%) HFCS55, citric acid 0.15%, pH 2.6-2.7, FIG. 12) was “did not reach the sweetness of a 14.29% (w/v-%) HFCS55 solution” and the “sweetness of erythritol solution in combination with Reb C” value ([4]; 285 ppm (300 μM) Reb C in 7.14% erythritol solution, equivalent to 5% (w/v-%) sucrose, FIG. 9) was “significantly sweeter than the 7.14% erythritol solution alone, but did not achieve the sweetness of a 10% erythritol solution”. The “sweetness intensity of cola beverage with HFCS55 in combination with Reb C” value ([4]; 310 ppm Reb C, 10.39% (w/v-%) HFCS55, buffered with phosphoric acid, FIG. 15) was “increased significantly the sweetness intensity of a cola beverage containing 10.39% (w/v-%) HFCS55, but did not reach the sweetness of a 14.29% (w/v-%) HFCS55 cola beverage”, the “sweetness of unsweetened cola beverage with Reb C” value ([4]; concentrations 190 ppm or below (95, 190 and 285 ppm tested), FIG. 11) was “does not increase the sweetness of an unsweetened cola beverage” and the “sweetness of unsweetened lemon-lime soda with Reb C” value ([4]; control group of Example 11, concentrations 190 ppm or below (95, 190 and 285 ppm tested)) was “does not increase the sweetness of an unsweetened cola beverage”. For the same compound, the qualitative taste description [5] was “Both concentrations bitter and/or licorice”.

For `OC[C@H]1O[C@@](CO)(O[C@H]2O[C@H](CO)[C@@H](O)[C@H](O)[C@H]2O)[C@@H](O)[C@@H]1O` [sucrose, α-D-glucopyranosyl-(1->2)-β-D-fructofuranose, reference compound], the “mean sweetness intensity score” value ([1]; 11% (w/v-%) sucrose solution, high concentration comparator, scale 0 to 8) was 6.95.

For `C=C1C[C@@]23CC[C@H]4[C@@](C)(CCC[C@@]4(C)C(=O)O[C@@H]4O[C@H](CO)[C@@H](O)[C@H](O)[C@H]4O)[C@@H]2CC[C@]1(O[C@@H]1O[C@H](CO)[C@@H](O)[C@H](O[C@@H]2O[C@H](CO)[C@@H](O)[C@H](O)[C@H]2O)[C@H]1O[C@@H]1O[C@H](CO)[C@@H](O)[C@H](O)[C@H]1O)C3` [rebaudioside A], the “effect in mixtures with fructose and glucose” value [6, 8] is given as “additive effect”, the “effect in mixtures with sucrose” value [6, 8] is given as “synergistic effect” and the “effect in mixtures with fructose, glucose and sucrose” value ([6]; sweetness intensities equivalent to 5% (w/v-%)) is given as “additive effect”. For the same compound, the “effect with a mixture with sucrose” value [6, 9] was “additive effect” and the “effect with mixtures with glucose and fructose” value [6, 9] was “suppressive effect”.
